Test results: the supplement of paper PMC13380429
± gives the standard deviation of the averaged measurements.

How the values were obtained:
Settings in all cases: 72 h
[1] = system: Caco-2; experiment: cell viability relative to DMSO; higher = less toxic
[2] = system: Calu-3; experiment: as above
[3] = system: HepG2; experiment: as above
[4] = system: U2OS; experiment: as above
[5] = system: Vero E6; experiment: as above
[6] = system: Caco-2; experiment: relative viability EC50 (midpoint between 100% and the lowest measured viability); higher = less toxic
[7] = system: Calu-3; experiment: as above
[8] = system: HepG2; experiment: as above
[9] = system: U2OS; experiment: as above
[10] = system: Vero E6; experiment: as above
[11] = system: Caco-2; experiment: drug sensitivity score (DSS) for viability; higher = more toxic; extreme values may be limits of the assay
[12] = system: Calu-3; experiment: as above
[13] = system: HepG2; experiment: as above
[14] = system: U2OS; experiment: as above
[15] = system: Vero E6; experiment: as above

| Compound | cell viability ([1]; 1 nM) | cell viability ([1]; 10 nM) | cell viability ([1]; 100 nM) | cell viability ([1]; 1000 nM) | cell viability ([1]; 10000 nM) | cell viability ([2]; 1 nM) | cell viability ([2]; 10 nM) | cell viability ([2]; 100 nM) | cell viability ([2]; 1000 nM) | cell viability ([2]; 10000 nM) | cell viability ([3]; 1 nM) | cell viability ([3]; 10 nM) | cell viability ([3]; 100 nM) | cell viability ([3]; 1000 nM) | cell viability ([3]; 10000 nM) | cell viability ([4]; 1 nM) | cell viability ([4]; 10 nM) | cell viability ([4]; 100 nM) | cell viability ([4]; 1000 nM) | cell viability ([4]; 10000 nM) | cell viability ([5]; 1 nM) | cell viability ([5]; 10 nM) | cell viability ([5]; 100 nM) | cell viability ([5]; 1000 nM) | cell viability ([5]; 10000 nM) | relative viability EC50 [6] | relative viability EC50 [7] | relative viability EC50 [8] | relative viability EC50 [9] | relative viability EC50 [10] | drug sensitivity score [11] | drug sensitivity score [12] | drug sensitivity score [13] | drug sensitivity score [14] | drug sensitivity score [15] |
| --- | --- | --- | --- | --- | --- | --- | --- | --- | --- | --- | --- | --- | --- | --- | --- | --- | --- | --- | --- | --- | --- | --- | --- | --- | --- | --- | --- | --- | --- | --- | --- | --- | --- | --- | --- |
| Cc1ccccc1-c1cc(N2CCN(C)CC2)ncc1N(C)C(=O)C(C)(C)c1cc(C(F)(F)F)cc(C(F)(F)F)c1 [netupitant] | 93.2% | 92.6% | 91.5% | 96% | 95.2% | 94.8% | 101% | 105% | 112% | 102% | 95% | 98.2% | 104% | 97.9% | 95.6% | 102% | 99% | 101% | 99.4% | 96.5% | 106% | 108% | 103% | 104% | 97.5% | > 10 µM | > 10 µM | > 10 µM | > 10 µM | > 10 µM | 0 | 0 | 0 | 0 | 0 |
| CO[C@H]1C[C@H](O[C@H]2CC[C@@]3(C)[C@H](CC[C@@H]4[C@@H]3CC[C@]3(C)[C@@H](C5=CC(=O)OC5)[C@@H](OC(C)=O)C[C@]43O)C2)O[C@@H](C)[C@@H]1O [oleandrin] | 98.1% | 79.5% | 17.8% | 19.5% | 20.9% | 102% | 89.3% | 31.6% | 18.4% | 17.4% | 102% | 107% | 38.1% | 7.4% | 6.4% | 104% | 98.4% | 10.8% | 7.3% | 9.5% | 101% | 87.5% | 1.1% | 1.1% | 1.3% | 0.0155 µM | 0.0355 µM | 0.0769 µM | 0.0334 µM | 0.0214 µM | 28.6 | 24.5 | 24.1 | 28.1 | 32.3 |
| Fc1ccc([C@@H]2CCNC[C@H]2COc2ccc3c(c2)OCO3)cc1 [paroxetine] | 85.8% | 102% | 111% | 98.6% | 82.1% | 95.9% | 87.4% | 93.1% | 85.1% | 108% | 117% | 120% | 108% | 83.7% | 102% | 97.7% | 96.4% | 103% | 98% | 101% | 95.9% | 104% | 98.7% | 101% | 100% | > 10 µM | > 10 µM | > 10 µM | > 10 µM | > 10 µM | 0.6 | 0 | 0 | 0 | 0 |
| C[C@H]1COc2c(C3(N)CC3)c(F)cc3c(=O)c(C(=O)O)cn1c23 [pazufloxacin] | 103% | 93.5% | 90.3% | 99.2% | 102% | 96.9% | 98.7% | 90.6% | 101% | 89.3% | 88.8% | 107% | 101% | 98.9% | 99.4% | 103% | 103% | 100% | 99.9% | 97.3% | 93.7% | 103% | 103% | 94.6% | 99.2% | > 10 µM | > 10 µM | > 10 µM | > 10 µM | > 10 µM | 0 | 0 | 0 | 0 | 0 |
| CC(C)NCC(O)COc1cccc2[nH]ccc12 (stereo not given) [pindolol] | 117% | 100% | 122% | 101% | 90.9% | 98.8 ± 1.1% | 97 ± 6.8% | 100.4 ± 0.28% | 103.8 ± 0.92% | 102 ± 15% | 111 ± 10% | 90 ± 12% | 105 ± 0.14% | 85.5 ± 29% | 103 ± 8.6% | 103 ± 5% | 101 ± 2.3% | 99.5 ± 3.3% | 102.5 ± 0.35% | 103 ± 0.14% | 99.2 ± 1.3% | 95.8 ± 1.4% | 96.1 ± 9.6% | 98.8 ± 2.1% | 95 ± 11% | > 10 µM | > 10 µM | > 10 µM | > 10 µM | > 10 µM | 0 | 0 | 0 | 0 | 0 |
| CN1CCN(CC(=O)N2c3ccccc3C(=O)Nc3cccnc32)CC1 [pirenzepine] | 85.5% | 103% | 99.9% | 93.9% | 95% | 97.5% | 87.3% | 104% | 96.3% | 103% | 113% | 99.9% | 88.9% | 103% | 97.7% | 96.1% | 93.8% | 99.6% | 98.7% | 101% | 103% | 101% | 98.4% | 103% | 102% | > 10 µM | > 10 µM | > 10 µM | > 10 µM | > 10 µM | 0 | 0 | 0 | 0 | 0 |
| NS(=O)(=O)c1cc(C(=O)O)cc(N2CCCC2)c1Oc1ccccc1 [piretanide] | 90.2% | 97.4% | 106% | 104% | 110% | 90% | 98.7% | 90.5% | 94.8% | 101% | 101% | 99.7% | 85.1% | 105% | 110% | 95.5% | 96.7% | 101% | 98.4% | 103% | 98.5% | 100% | 93.3% | 101% | 105% | > 10 µM | > 10 µM | > 10 µM | > 10 µM | > 10 µM | 0 | 0 | 0 | 0 | 0 |
| CC(C)(C)c1[nH]cnc1/C=c1\[nH]c(=O)/c(=C/c2ccccc2)[nH]c1=O [plinabulin] | 107% | 89.1% | 68.6% | 53.5% | 37.6% | 102% | 87.9% | 56.8% | 40.7% | 36.6% | 108% | 97.1% | 50.1% | 25.5% | 30.9% | 101% | 94.9% | 45.3% | 22.3% | 20.6% | 106% | 101% | 32.7% | 11.7% | 11.4% | 0.123 µM | 0.0465 µM | 0.0668 µM | 0.0591 µM | 0.0633 µM | 13.1 | 17.3 | 19.7 | 21.3 | 23.9 |
| Nc1cccc2c1C(=O)N(C1CCC(=O)NC1=O)C2=O (stereo not given) [pomalidomide] | 86% | 85% | 103% | 95% | 98.3% | 106% | 103% | 103% | 105% | 90.9% | 104% | 104% | 98.5% | 101% | 111% | 99% | 97.3% | 104% | 96.1% | 98.4% | 93.5% | 97.1% | 89.2% | 99.4% | 103% | > 10 µM | > 10 µM | > 10 µM | > 10 µM | > 10 µM | 0 | 0 | 0 | 0 | 0 |
| COC(=O)C1=C(C)NC(C)=C(C(=O)OC/C=C/c2ccccc2)C1c1cccc([N+](=O)[O-])c1 (stereo not given) [pranidipine] | 101% | 80% | 97% | 91.5% | 92.6% | 103% | 101% | 99.7% | 91.7% | 91.8% | 97.1% | 102% | 107% | 103% | 95.1% | 98.1% | 93% | 99.6% | 95.5% | 94.8% | 93.8% | 103% | 83.1% | 95.1% | 96.9% | > 10 µM | > 10 µM | > 10 µM | > 10 µM | > 10 µM | 0 | 0 | 0 | 0 | 0 |
| CCC1(CC)C(=O)C=CNC1=O [pyrithyldione] | 100% | 93.1% | 93.4% | 92.3% | 102% | 93.1% | 94.1% | 99.5% | 99.9% | 96.7% | 91% | 92% | 94.9% | 104% | 95.1% | 98.2% | 95% | 97.8% | 95.1% | 96.6% | 93.5% | 107% | 97.5% | 102% | 93.6% | > 10 µM | > 10 µM | > 10 µM | > 10 µM | > 10 µM | 0 | 0 | 0 | 0 | 0 |
